Results reported in patent publication US20230115945A1, “AMINOPYRIMIDINE COMPOUNDS” (TYRA BIOSCIENCES, INC., priority 2019, published 2023).

Legend:
FGFR2 = biological target: T1, FGFR2 (Homo sapiens, UniProt P21802); assay: Kinase binding assay (Kd), FGFR2; conditions: 11-point 3-fold dilution, qPCR readout
T1 construct: made in house; host or cells: E. coli host derived from BL21, infected with T7 phage
Summary of the method: (§1)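 Competition binding, phage-tagged kinase vs. bead-bound ligand; 11-pt 3-fold cpd series, 0.9% DMSO final; 1 h RT shaking; eluate kinase by qPCR; Kd via Hill fit (slope −1, Levenberg–Marquardt).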

FGFR3 = biological target: T2, FGFR3 (Homo sapiens, UniProt P22607); assay: Kinase binding assay (Kd), FGFR3; conditions: 11-point 3-fold dilution, qPCR readout
T2 construct: made in house; host or cells: E. coli host derived from BL21, infected with T7 phage
Summary of the method: as §1

FGFR4 = biological target: T3, FGFR4 (Homo sapiens, UniProt P22455); assay: Kinase binding assay (Kd), FGFR4; conditions: 11-point 3-fold dilution, qPCR readout
T3 construct: made in house; host or cells: E. coli host derived from BL21, infected with T7 phage
Summary of the method: as §1

FGFR1-BCR Ba/F3 cells = biological target: T4, FGFR1-BCR Ba/F3 cells (Homo sapiens, UniProt P11362); assay: Ba/F3 cell viability assay, FGFR1; format: cell-based; conditions: FGFR1-BCR Ba/F3, 48 hours, Cell Titer-Glo 2.0; read-out: Ba/F3 Cells FGFR1 (IC50 nM)
T4 construct: Ba/F3 FGFR1; FGFR1-BCR; Advanced Cellular Dynamics, (Seattle, WA); fused on or other part: P11274 (Breakpoint cluster region protein)
Text: Experimental Purpose: Recombinant kinase fusions are transduced into parental Ba/F3, which becomes dependent upon this constitutive kinase activity for IL3-independent survival. Inhibition of kinase activity leads to cell death, which is monitored using CellTiter-Glo® 2.0 (Promega) which measures intracellular ATP concentration that in turn serves as a marker for viability. FGFR1-BCR Ba/F3 and FGFR3-BAIAP2L1 Ba/F3 were obtained from Advanced Cellular Dynamics (Seattle, Wash.)
Cell Viability Assay Procedure: Cell Titer-Glo® 2.0 Luminescent cell viability assay reagent was purchased from Promega (Madison, Wis.). FGFR1-BCR Ba/F3 and FGFR3-BAIAP2L1 Ba/F3 cells were cultured in RPMI1640 media supplemented with 10% fetal bovine serum. Cultures were maintained at 37° C. in a humidified atmosphere of 5% CO2 and 95% air.
Cells were plated in 96-well clear bottom/white plates (Corning #3903) at 10,000 cells/well in 100 μl of media, incubated overnight. The next day, test compound DMSO stock solutions were made at 10 mM and 2 μM final concentration. Compounds were then added to cells in a 9-dose, 10-fold dilution series starting at 30 μM with an HP 300e Digital Dispenser (each dose was applied in triplicate). DMSO was backfilled to each well up to 301 nL total volume of test compound+DMSO, and a total of 301 nL DMSO was added to a control/no test compound well in triplicate. The cells in cell culture plates were incubated with the compounds at 37° C. and 5% CO2 for 48 hours. Then 50 μl of Cell Titer Glo 2.0 reagent was added to each well of the cell culture plates. The contents were covered from light and mixed on an orbital shaker at room temperature for 10 min. Luminescence was recorded by a Synergy H1 Microplate Reader (Biotek, Winooski, Vt.). Cells were assessed as a percentage of DMSO only treated control cells. Curves were plotted and IC50 values were calculated using the GraphPad Prism 8 program based on a sigmoidal dose-response equation (4 parameter).

[1] = test system: KG-1 cells (Acute Myeloid Leukemia, FGFR1OP2-FGFR1 fusion); assay: Cancer cell line cell viability assay, KG-1; format: cell-based; conditions: Homo sapiens, 72 hours, Cell Titer-Glo 2.0, read-out: Cancer Cell Viability Assays KG1 (IC50 nM)
Text: (§2) To detect the change of intracellular ATP by Cell Titer-Glo® and to evaluate the inhibitory effect of the compounds on cancer cell lines by determining the in vitro IC50 value of the compounds.
(§3) Cell Titer-Glo® 2.0 Luminescent cell viability assay reagent was purchased from Promega (Madison, Wis.). RT112/84, SNU-16, and KG-1 cell lines were purchased from American Type Culture Collection (Manassas, Va.). UM-UC-14 cell line was purchased from Sigma (St. Louis, Mo.). RT112/84, UM-UC-14, SNU-16, and KG-1 cells were cultured in RPMI1640 media supplemented with 10% fetal bovine serum. Cultures were maintained at 37° C. in a humidified atmosphere of 5% CO2 and 95% air.
(§4) Cell Viability Assay Procedure: Cells were plated in 96-well clear bottom/white plates (Corning #3903) at 10,000 cells/well in 100 μl of media, incubated overnight. The next day, test compound DMSO stock solutions were made at 10 mM and 2 μM final concentration. Compounds were then added to cells in a 9-dose, 10-fold dilution series starting at 30 μM with an HP 300e Digital Dispenser (each dose was applied in triplicate). DMSO was backfilled to each well up to 301 nL total volume of test compound+DMSO, and a total of 301 nL DMSO was added to a control/no test compound well in triplicate. The cells in cell culture plates were incubated with the compounds at 37° C. and 5% CO2 for 72 hours. Then 50 μl of Cell Titer Glo 2.0 reagent was added to each well of the cell culture plates. The contents were covered from light and mixed on an orbital shaker at room temperature for 10 min. Luminescence was recorded by a Synergy H1 Microplate Reader (Biotek, Winooski, Vt.). Cells were assessed as a percentage of DMSO only treated control cells. Curves were plotted and IC50 values were calculated using the GraphPad Prism 8 program based on a sigmoidal dose-response equation (4 parameter).

[2] = test system: UM-UC-14 cells (Bladder Cancer, FGFR3(S249C)); assay: Cancer cell line cell viability assay, UM-UC-14; format: cell-based; conditions: UMUC14; 72 hours, Cell Titer-Glo 2.0; read-out: Cancer Cell Viability Assays UM-UC-14 (IC50 nM)
Text: as §2, §3, §4

T1 sequence (P21802 22-821): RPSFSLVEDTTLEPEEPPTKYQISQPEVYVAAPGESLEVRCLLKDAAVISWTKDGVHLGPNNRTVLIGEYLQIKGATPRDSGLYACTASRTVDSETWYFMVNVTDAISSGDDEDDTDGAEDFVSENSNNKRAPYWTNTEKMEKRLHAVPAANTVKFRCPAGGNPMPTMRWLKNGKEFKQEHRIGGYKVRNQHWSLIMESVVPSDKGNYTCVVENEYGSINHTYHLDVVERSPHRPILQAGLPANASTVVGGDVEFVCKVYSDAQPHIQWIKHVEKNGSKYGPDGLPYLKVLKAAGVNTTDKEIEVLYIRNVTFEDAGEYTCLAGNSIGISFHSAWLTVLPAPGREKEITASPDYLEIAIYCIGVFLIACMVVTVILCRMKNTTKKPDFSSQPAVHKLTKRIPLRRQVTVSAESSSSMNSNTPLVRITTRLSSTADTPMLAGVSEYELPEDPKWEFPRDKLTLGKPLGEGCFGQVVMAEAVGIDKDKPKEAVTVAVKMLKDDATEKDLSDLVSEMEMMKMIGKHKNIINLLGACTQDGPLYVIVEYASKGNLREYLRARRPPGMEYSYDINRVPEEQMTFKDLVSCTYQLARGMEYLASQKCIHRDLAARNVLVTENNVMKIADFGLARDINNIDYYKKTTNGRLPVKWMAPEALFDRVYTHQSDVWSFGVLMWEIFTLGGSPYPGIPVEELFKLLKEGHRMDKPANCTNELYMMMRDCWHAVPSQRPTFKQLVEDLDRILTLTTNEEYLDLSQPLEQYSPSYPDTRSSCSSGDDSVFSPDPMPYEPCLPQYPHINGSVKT
T4 sequence (P11362 whole entry, change not shown, the tested form may be a part): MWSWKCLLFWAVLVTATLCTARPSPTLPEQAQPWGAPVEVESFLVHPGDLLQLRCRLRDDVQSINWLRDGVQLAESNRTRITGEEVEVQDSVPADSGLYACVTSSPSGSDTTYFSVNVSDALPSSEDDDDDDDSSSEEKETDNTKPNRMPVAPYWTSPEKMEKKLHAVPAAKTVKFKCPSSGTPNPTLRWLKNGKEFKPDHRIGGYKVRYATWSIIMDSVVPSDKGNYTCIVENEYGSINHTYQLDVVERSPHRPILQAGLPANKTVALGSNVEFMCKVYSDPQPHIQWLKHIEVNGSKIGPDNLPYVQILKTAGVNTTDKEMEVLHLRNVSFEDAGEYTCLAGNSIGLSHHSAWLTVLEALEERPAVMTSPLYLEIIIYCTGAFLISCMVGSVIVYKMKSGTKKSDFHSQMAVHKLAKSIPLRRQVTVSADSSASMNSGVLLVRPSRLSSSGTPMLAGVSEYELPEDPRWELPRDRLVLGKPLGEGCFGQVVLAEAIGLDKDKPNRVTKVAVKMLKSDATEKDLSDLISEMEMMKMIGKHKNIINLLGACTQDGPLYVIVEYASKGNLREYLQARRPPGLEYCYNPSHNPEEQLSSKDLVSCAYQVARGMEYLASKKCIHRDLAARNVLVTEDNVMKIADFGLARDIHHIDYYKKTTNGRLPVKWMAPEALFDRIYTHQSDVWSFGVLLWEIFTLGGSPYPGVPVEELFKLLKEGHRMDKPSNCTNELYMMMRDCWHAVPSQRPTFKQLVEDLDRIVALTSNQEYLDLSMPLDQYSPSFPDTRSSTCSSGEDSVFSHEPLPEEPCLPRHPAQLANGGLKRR
T3 sequence (P22455 22-802): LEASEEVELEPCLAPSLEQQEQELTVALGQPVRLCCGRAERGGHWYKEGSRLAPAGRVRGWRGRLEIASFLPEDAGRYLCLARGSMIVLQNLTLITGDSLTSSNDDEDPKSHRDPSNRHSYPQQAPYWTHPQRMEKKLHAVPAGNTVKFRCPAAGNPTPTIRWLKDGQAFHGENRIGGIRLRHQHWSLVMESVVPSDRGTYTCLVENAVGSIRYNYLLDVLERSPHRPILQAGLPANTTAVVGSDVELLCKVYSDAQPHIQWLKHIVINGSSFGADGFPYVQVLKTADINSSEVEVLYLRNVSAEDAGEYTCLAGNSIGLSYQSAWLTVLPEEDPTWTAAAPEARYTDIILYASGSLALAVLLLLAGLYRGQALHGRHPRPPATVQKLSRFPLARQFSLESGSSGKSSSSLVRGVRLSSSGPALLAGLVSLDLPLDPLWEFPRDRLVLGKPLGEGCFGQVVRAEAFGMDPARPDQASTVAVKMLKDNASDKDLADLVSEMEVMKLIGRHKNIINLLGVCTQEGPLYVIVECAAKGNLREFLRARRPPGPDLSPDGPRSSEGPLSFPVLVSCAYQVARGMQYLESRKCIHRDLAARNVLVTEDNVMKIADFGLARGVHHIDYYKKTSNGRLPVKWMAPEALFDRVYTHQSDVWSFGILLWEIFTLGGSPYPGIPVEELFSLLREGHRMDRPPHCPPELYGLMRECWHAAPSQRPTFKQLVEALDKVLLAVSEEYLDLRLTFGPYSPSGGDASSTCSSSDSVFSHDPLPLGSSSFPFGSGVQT
T2 sequence (P22607 23-806): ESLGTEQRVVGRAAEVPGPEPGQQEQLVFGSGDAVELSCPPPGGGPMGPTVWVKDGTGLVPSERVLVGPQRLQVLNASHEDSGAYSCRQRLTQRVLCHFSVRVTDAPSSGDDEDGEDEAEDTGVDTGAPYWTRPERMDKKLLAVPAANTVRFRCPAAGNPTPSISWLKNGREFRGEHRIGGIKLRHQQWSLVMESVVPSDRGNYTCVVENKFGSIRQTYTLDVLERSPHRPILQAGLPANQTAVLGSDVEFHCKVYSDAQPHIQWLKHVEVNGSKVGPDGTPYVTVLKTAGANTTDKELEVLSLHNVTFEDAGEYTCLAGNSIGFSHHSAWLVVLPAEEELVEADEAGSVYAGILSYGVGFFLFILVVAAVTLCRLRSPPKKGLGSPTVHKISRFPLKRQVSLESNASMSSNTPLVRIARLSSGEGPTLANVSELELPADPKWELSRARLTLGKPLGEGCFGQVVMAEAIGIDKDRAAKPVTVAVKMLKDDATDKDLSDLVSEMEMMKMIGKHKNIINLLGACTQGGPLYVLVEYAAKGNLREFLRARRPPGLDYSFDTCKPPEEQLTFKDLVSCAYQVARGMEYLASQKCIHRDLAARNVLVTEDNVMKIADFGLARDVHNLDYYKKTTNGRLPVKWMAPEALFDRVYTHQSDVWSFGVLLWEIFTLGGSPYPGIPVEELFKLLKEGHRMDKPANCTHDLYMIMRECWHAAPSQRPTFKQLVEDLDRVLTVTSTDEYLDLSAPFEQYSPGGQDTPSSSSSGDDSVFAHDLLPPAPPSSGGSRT

| SMILES | Kd (FGFR2) | Kd (FGFR3) | Kd (FGFR4) | GI50 (FGFR1-BCR Ba/F3 cells) | IC50 [1] | IC50 [2] |
| --- | --- | --- | --- | --- | --- | --- |
| C=CC(=O)Nc1ccc2c(c1)c(C)cn2-c1nc(Nc2ccc(N=S(C)(C)=O)c(F)c2)ncc1Cl [Example 60, N-[1-[5-Chloro-2-[4-[[dimethyl(oxo)-λ^6-sulfanylidene]amino]-3-fluoro-anilino]pyrimidin-4-yl]-3-methyl-indol-5-yl]prop-2-enamide] | 3.2 nM | 3.5 nM | 42 nM | 2 nM | 4 nM | 6 nM |
| C=CC(=O)Nc1ccc2c(c1)c(C)cn2-c1nc(Nc2ccc(N=S(C)(C)=O)cc2)ncc1Cl [Example 61, N-[1-[5-Chloro-2-[4-[[dimethyl(oxo)-λ^6-sulfanylidene]amino]anilino]pyrimidin-4-yl]-3-methyl-indol-5-yl]prop-2-enamide] | 6 nM | 6 nM | 100 nM | 2 nM | 6 nM | 12 nM |
| C=CC(=O)Nc1ccc2c(c1)c(C)cn2-c1nc(Nc2ccc(N=S(C)(C)=O)c(F)c2)ncc1C#N [Example 62, N-[1-[5-Cyano-2-[4-[[dimethyl(oxo)-λ^6-sulfanylidene]amino]-3-fluoro-anilino]pyrimidin-4-yl]-3-methyl-indol-5-yl]prop-2-enamide] | 16 nM | 20 nM | 170 nM | 9 nM | 17 nM | 152 nM |
| C=CC(=O)Nc1ccc2c(c1)c(C)cn2-c1nc(Nc2ccc(N=S(C)(C)=O)c(F)c2)ncc1C [Example 63, N-[1-[2-[4-[[dimethyl(oxo)-λ^6-sulfanylidene]amino]-3-fluoro-anilino]-5-methyl-pyrimidin-4-yl]-3-methyl-indol-5-yl]prop-2-enamide] | 3 nM | 3 nM | 39 nM | 1 nM | 1 nM | 3 nM |
| C=CC(=O)Nc1ccc2c(c1)c(C)cn2-c1nc(Nc2ccc(N=S(C)(C)=O)c(OC)c2)ncc1Cl [Example 64, N-[1-[5-Chloro-2-[4-[[dimethyl(oxo)-λ^6-sulfanylidene]amino]-3-methoxy-anilino]pyrimidin-4-yl]-3-methyl-indol-5-yl]prop-2-enamide] | 4 nM | 4 nM | 59 nM | 3 nM | 1 nM | 3 nM |
| C=CC(=O)Nc1ccc2c(ccn2-c2nc(Nc3ccc(N=S(C)(C)=O)cc3)ncc2Cl)c1 [Example 66, N-[1-[5-chloro-2-[4-[[dimethyl(oxo)-λ^6-sulfanylidene]amino]anilino]-pyrimidin-4-yl]indol-5-yl]prop-2-enamide] | 37 nM | 21 nM | 680 nM | 6 nM | 20 nM | 34 nM |
| C=CC(=O)Nc1ccc2c(ccn2-c2nc(Nc3ccc(S(C)(=N)=O)cc3)ncc2Cl)c1 (stereo not drawn) [Example 70, N-[1-[5-Chloro-2-[4-(methylsulfonimidoyl)anilino]-pyrimidin-4-yl]indol-5-yl]prop-2-enamide] | 25 nM | 21 nM | 370 nM | 8 nM | 9 nM | 34 nM |
| C=CC(=O)Nc1ccc2c(-c3nc(Nc4ccc(N=S(C)(C)=O)cc4)ncc3Cl)cn(C)c2c1 [Example 92, N-[3-[5-chloro-2-[4-[[dimethyl(oxo)-λ^6-sulfanylidene]amino]anilino]pyrimidin-4-yl]-1-methyl-indol-6-yl]prop-2-enamide] | 13 nM | 12 nM | 230 nM | 1 nM | 5 nM | 10 nM |
